In brackets after ≈: the same amount, converted by molar mass.

For nine compounds, MIC results are on record in ChEMBL document CHEMBL5241137, “Evaluation of carboxylic acid-derivatized corroles as novel gram-positive antibacterial agents under non-photodynamic inactivation conditions” (2023).

The subject of experiment [1] is Staphylococcus aureus. Nature of the experiment: Antibacterial activity against methicillin-resistant Staphylococcus aureus […] assessed as reduction in bacterial growth measured under non-photodynamic inactivation condition. It counts as functional. To be noted: light or radiation study.
The subject of experiment [2] is Staphylococcus aureus. Nature of the experiment: Antibacterial activity against methicillin-sensitive Staphylococcus aureus ATCC 29213 assessed as reduction in bacterial growth measured under non-photodynamic inactivation condition. It is filed as functional. The conditions noted are these: ATCC 29213, light or radiation study.

Regarding `CN[C@H](CC(C)C)C(=O)N[C@H]1C(=O)N[C@@H](CC(N)=O)C(=O)N[C@H]2C(=O)N[C@H]3C(=O)N[C@H](C(=O)N[C@H](C(=O)O)c4cc(O)cc(O)c4-c4cc3ccc4O)[C@H](O)c3ccc(c(Cl)c3)Oc3cc2cc(c3O[C@@H]2O[C@H](CO)[C@@H](O)[C@H](O)[C@H]2O[C@H]2C[C@](C)(N)[C@H](O)[C@H](C)O2)Oc2ccc(cc2Cl)[C@H]1O` [VANCOMYCIN], the MIC in the experiment on Staphylococcus aureus [1] and in the experiment with Staphylococcus aureus [2] was 0.39 µg/mL (≈ 0.269 µM) in each case.

On to `Cc1ccc(-c2c3nc(c(-c4cc(C(=O)O)cc(C(=O)O)c4)c4ccc([nH]4)c4ccc([nH]4)c(-c4cc(C(=O)O)cc(C(=O)O)c4)c4ccc2[nH]4)C=C3)cc1`, for which the MIC with Staphylococcus aureus [1] and with Staphylococcus aureus [2] was 12.5 µg/mL (≈ 17.4 µM) each time.

In the case of `O=C(O)c1ccc(-c2c3nc(c(-c4ccc(C(=O)O)cc4)c4ccc([nH]4)c4ccc([nH]4)c(-c4ccc(C(=O)O)cc4)c4ccc2[nH]4)C=C3)cc1`, the MIC in the experiment on Staphylococcus aureus [1] and in the experiment with Staphylococcus aureus [2] was 100 µg/mL (≈ 152 µM) throughout.

Take `Cc1ccc(-c2c3nc(c(-c4ccc(C(=O)O)cc4)c4ccc([nH]4)c(-c4ccc(C)cc4)c4ccc([nH]4)c4ccc2[nH]4)C=C3)cc1`: the MIC in the experiment with Staphylococcus aureus [1] and with Staphylococcus aureus [2] was 100 µg/mL (≈ 167 µM) in each case.

On to `Fc1cc(F)c(F)c(-c2c3nc(c(-c4c(F)c(F)c(F)c(F)c4F)c4ccc([nH]4)c(-c4c(F)c(F)cc(F)c4F)c4ccc([nH]4)c4ccc2[nH]4)C=C3)c1F`, for which the MIC stood at 12.5 µg/mL (≈ 16.4 µM) with Staphylococcus aureus [1] and 25 µg/mL (≈ 32.9 µM) with Staphylococcus aureus [2].

Take `O=S(=O)(O)CCNc1c(F)c(F)c(-c2c3nc(c(-c4c(F)c(F)c(NCCS(=O)(=O)O)c(F)c4F)c4ccc([nH]4)c4ccc([nH]4)c(-c4c(F)c(F)c(NCCS(=O)(=O)O)c(F)c4F)c4ccc2[nH]4)C=C3)c(F)c1F`: the MIC in the experiment with Staphylococcus aureus [1] was 100 µg/mL (≈ 89.9 µM); in the experiment with Staphylococcus aureus [2] it was greater than 100 µg/mL.

With `CO[C@@]1(NC(=O)Cc2cccs2)C(=O)N2C(C(=O)O)=C(COC(N)=O)CS[C@@H]21` [CEFOXITIN], the MIC with Staphylococcus aureus [1] was determined as 25 µg/mL (≈ 58.5 µM); with Staphylococcus aureus [2] it was 3.12 µg/mL (≈ 7.3 µM).

In the case of `O=C(O)c1ccc(C(c2ccc[nH]2)c2ccc[nH]2)cc1`, the MIC with Staphylococcus aureus [1] and in the experiment with Staphylococcus aureus [2] was 50 µg/mL (≈ 188 µM) throughout.

`Cc1c(C(=O)O)[nH]c(C(c2ccccc2)c2[nH]c(C(=O)O)c(C)c2C)c1C`: the MIC with Staphylococcus aureus [1] came to 50 µg/mL (≈ 136 µM); with Staphylococcus aureus [2], 100 µg/mL (≈ 273 µM).
